Data on 8 compounds can be found in ChEMBL document CHEMBL4382202, “1-(2-Hydroxybenzoyl)-thiosemicarbazides are promising antimicrobial agents targeting d-alanine-d-alanine ligase in bacterio” (Eur J Med Chem, 2018).

The test system of assay [1] is Enterococcus faecalis. Briefly: Antibacterial activity against Enterococcus faecalis ATCC 29212 after 18 to 24 hrs by microdilution assay. It counts as functional. In general terms: Dilution methods test growth across graded concentrations, often in twofold steps.
Assay [2] concerns Staphylococcus aureus. As to the kind of experiment: Antibacterial activity against hospital-acquired methicillin/ciprofloxacin/moxifloxacin resistant Staphylococcus aureus SA 481 after 18 to 24 hrs by microdilution assay. It counts as functional.
For assay [3], the system named is Staphylococcus aureus. As to the kind of experiment: Antibacterial activity against methicillin and vancomycin intermediate resistant Staphylococcus aureus MU50 after 18 to 24 hrs by microdilution assay. It counts as functional.
In assay [4] the test system is Staphylococcus aureus. Briefly: Antibacterial activity against hospital-acquired methicillin and vacomycin resistant Staphylococcus aureus VRS-1 after 18 to 24 hrs by microdilution assay. Type of assay: functional.
The test system of assay [5] is Staphylococcus aureus. As to the kind of experiment: Antibacterial activity against Staphylococcus aureus ATCC 25923 after 18 to 24 hrs by microdilution assay. It counts as functional.
In assay [6] the test system is Staphylococcus aureus. Briefly: Antibacterial activity against methicillin and linezolid resistant Staphylococcus aureus NRS 119 clinical isolate after 18 to 24 hrs by microdilution assay. Type of assay: functional.
Assay [7] concerns Staphylococcus aureus. Briefly: Antibacterial activity against community-acquired methicillin and erythromycin resistant Staphylococcus aureus SA 325 after 18 to 24 hrs by microdilution assay. Type of assay: functional.
The test system of assay [8] is Enterococcus faecalis. As to the kind of experiment: Antibacterial activity against vancomycin-resistant Enterococcus faecalis BM 4390 after 18 to 24 hrs by microdilution assay. Type of assay: functional.
The target of assay [9] is T1, D-alanine--D-alanine ligase (Enterococcus faecalis (strain ATCC 700802 / V583), UniProt Q47758).
T1 sequence (Q47758 whole entry): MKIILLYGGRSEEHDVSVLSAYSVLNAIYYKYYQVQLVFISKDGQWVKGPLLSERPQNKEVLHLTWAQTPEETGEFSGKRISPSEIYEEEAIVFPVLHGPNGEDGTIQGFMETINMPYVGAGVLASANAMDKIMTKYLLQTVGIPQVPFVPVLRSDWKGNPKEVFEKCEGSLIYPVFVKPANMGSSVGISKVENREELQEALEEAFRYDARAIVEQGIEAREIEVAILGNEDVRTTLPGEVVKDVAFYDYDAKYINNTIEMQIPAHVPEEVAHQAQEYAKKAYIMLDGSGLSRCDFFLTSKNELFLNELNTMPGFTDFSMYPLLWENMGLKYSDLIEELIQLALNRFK
Briefly: Inhibition of Enterococcus faecalis JH2-2 C-terminal 6His-tagged DdlB expressed in Escherichia coli LMG194 preincubated for 30 mins followed by substrate addition and measured after 20 mins by Biomol Green reagent assay.

Assay [10] concerns Enterococcus faecalis. Briefly: Antibacterial activity against vancomycin-resistant Enterococcus faecalis JH2-2::C1 after 18 to 24 hrs by microdilution assay. Type of assay: functional.
Assay [11] relates to Enterococcus faecalis. Briefly: Antibacterial activity against vancomycin-resistant Enterococcus faecalis BM 4575 clinical isolate after 18 to 24 hrs by microdilution assay. Type of assay: functional.

Values after ≈ are worked out from the molar mass of the structure shown.

`O=C(NNC(=S)Nc1cccc2ccccc12)c1ccccc1O`: the MIC in the assay on Enterococcus faecalis [1] was more than 400 µM; in the assay on Staphylococcus aureus [2] it was more than 100 µM; with Staphylococcus aureus [3], more than 100 µM; against Staphylococcus aureus [4], more than 100 µM; against Staphylococcus aureus [5] it was more than 100 µM; against Staphylococcus aureus [6] it was more than 100 µM. The MIC against Staphylococcus aureus [7], against Enterococcus faecalis [8], in the assay with Enterococcus faecalis [10] and against Enterococcus faecalis [11] was more than 100 µM throughout. This compound displayed an IC50 in assay [9] of 520 nM.

With `O=C(NNC(=S)Nc1ccc(OC(F)(F)F)cc1)c1ccccc1O`, the minimum inhibitory concentration (MIC) with Enterococcus faecalis [1] is 50 µM (≈ 18.6 µg/mL); in the assay on Staphylococcus aureus [2] it was more than 100 µM; in the assay on Staphylococcus aureus [3] it was more than 100 µM; in the assay with Staphylococcus aureus [4], more than 100 µM; in the assay on Staphylococcus aureus [5], 25 µM (≈ 9.28 µg/mL); in the assay on Staphylococcus aureus [6], 100 µM (≈ 37.1 µg/mL). The MIC with Staphylococcus aureus [7] was 100 µM (≈ 37.1 µg/mL); against Enterococcus faecalis [8], more than 100 µM; in the assay with Enterococcus faecalis [10], 100 µM (≈ 37.1 µg/mL); in the assay with Enterococcus faecalis [11], more than 100 µM. In [9], this compound gave a 50% inhibitory concentration (IC50) of 700 nM.

Turning to `Nc1ccc(C(=O)NNC(=S)Nc2ccc(Cl)c(Cl)c2)c(O)c1`, the MIC was more than 400 µM in the assay on Enterococcus faecalis [1]; more than 100 µM in the assay with Staphylococcus aureus [2]; more than 100 µM in the assay on Staphylococcus aureus [3]; more than 100 µM with Staphylococcus aureus [4]; more than 100 µM with Staphylococcus aureus [5]; more than 100 µM with Staphylococcus aureus [6]. The MIC against Staphylococcus aureus [7], in the assay on Enterococcus faecalis [8], against Enterococcus faecalis [10] and against Enterococcus faecalis [11] was more than 100 µM throughout. In assay [9], this compound had a 50% inhibitory concentration (IC50) of 990 nM.

As to `O=C(NNC(=S)Nc1ccc(Cl)c(Cl)c1)c1ccc(I)cc1O`, the minimum inhibitory concentration (MIC) with Enterococcus faecalis [1] is more than 400 µM; with Staphylococcus aureus [2] it was more than 100 µM; in the assay with Staphylococcus aureus [3], more than 100 µM; against Staphylococcus aureus [4] it was more than 100 µM; against Staphylococcus aureus [5], 100 µM (≈ 48.2 µg/mL); with Staphylococcus aureus [6] it was more than 100 µM. Also, the minimal inhibitory concentration (MIC) against Staphylococcus aureus [7], with Enterococcus faecalis [8], in the assay on Enterococcus faecalis [10] and in the assay on Enterococcus faecalis [11] was more than 100 µM each time. Besides, in [9], the concentration for half-maximal inhibition (IC50) amounted to 930 nM.

As to `O=C(NNC(=S)Nc1ccc(OCc2ccccc2)cc1)c1ccccc1O`, the MIC against Enterococcus faecalis [1] is more than 400 µM; with Staphylococcus aureus [2], more than 100 µM; against Staphylococcus aureus [3], more than 100 µM; with Staphylococcus aureus [4], more than 100 µM; against Staphylococcus aureus [5] it was 100 µM (≈ 39.3 µg/mL); with Staphylococcus aureus [6] it was more than 100 µM. For the same compound, the MIC against Staphylococcus aureus [7], against Enterococcus faecalis [8], with Enterococcus faecalis [10] and against Enterococcus faecalis [11] was more than 100 µM each time. For the same compound, the IC50 in assay [9] stood at 990 nM.

On to `CCCCCNC(=S)NNC(=O)c1ccccc1O`, for which the MIC was more than 400 µM against Enterococcus faecalis [1]; more than 100 µM in the assay on Staphylococcus aureus [2]; more than 100 µM in the assay on Staphylococcus aureus [3]; more than 100 µM against Staphylococcus aureus [4]; more than 100 µM in the assay on Staphylococcus aureus [5]; more than 100 µM against Staphylococcus aureus [6]. For the same compound, the MIC against Staphylococcus aureus [7], against Enterococcus faecalis [8], in the assay with Enterococcus faecalis [10] and against Enterococcus faecalis [11] was more than 100 µM in each case. In addition, the 50% inhibitory concentration (IC50) in assay [9] was 930 nM.

Turning to `CC(=O)c1ccc(NC(=S)NNC(=O)c2ccccc2O)cc1`, the MIC was 50 µM (≈ 16.5 µg/mL) with Enterococcus faecalis [1]; more than 100 µM against Staphylococcus aureus [2]; more than 100 µM in the assay on Staphylococcus aureus [3]; more than 100 µM with Staphylococcus aureus [4]; 25 µM (≈ 8.23 µg/mL) against Staphylococcus aureus [5]; more than 100 µM against Staphylococcus aureus [6]. Further, the MIC in the assay on Staphylococcus aureus [7], against Enterococcus faecalis [8], with Enterococcus faecalis [10] and against Enterococcus faecalis [11] was more than 100 µM each time. Further, the midpoint of inhibition in assay [9], the IC50, lay at 370 nM.

Take `O=C(NNC(=S)Nc1cccc(I)c1)c1ccccc1O`: the minimal inhibitory concentration (MIC) is more than 400 µM with Enterococcus faecalis [1]; more than 100 µM in the assay on Staphylococcus aureus [2]; more than 100 µM against Staphylococcus aureus [3]; more than 100 µM in the assay with Staphylococcus aureus [4]; more than 100 µM in the assay on Staphylococcus aureus [5]; more than 100 µM against Staphylococcus aureus [6]. Also, the minimum inhibitory concentration (MIC) in the assay on Staphylococcus aureus [7], in the assay with Enterococcus faecalis [8], in the assay with Enterococcus faecalis [10] and in the assay on Enterococcus faecalis [11] was more than 100 µM throughout. The compound also yielded an IC50 in [9] of 730 nM.

As usually defined, the MIC is the lowest concentration that inhibits growth of the organism. A high value points to a need for much substance. The term IC50 denotes the concentration that gives 50% inhibition.
